Active and inactive are the calls of the source.
Columns and labels:
[1] = biological target: T1, DNA repair protein RAD52 homolog (Homo sapiens, UniProt P43351); format: functional, biochemical
T1 sequence (P43351 whole entry): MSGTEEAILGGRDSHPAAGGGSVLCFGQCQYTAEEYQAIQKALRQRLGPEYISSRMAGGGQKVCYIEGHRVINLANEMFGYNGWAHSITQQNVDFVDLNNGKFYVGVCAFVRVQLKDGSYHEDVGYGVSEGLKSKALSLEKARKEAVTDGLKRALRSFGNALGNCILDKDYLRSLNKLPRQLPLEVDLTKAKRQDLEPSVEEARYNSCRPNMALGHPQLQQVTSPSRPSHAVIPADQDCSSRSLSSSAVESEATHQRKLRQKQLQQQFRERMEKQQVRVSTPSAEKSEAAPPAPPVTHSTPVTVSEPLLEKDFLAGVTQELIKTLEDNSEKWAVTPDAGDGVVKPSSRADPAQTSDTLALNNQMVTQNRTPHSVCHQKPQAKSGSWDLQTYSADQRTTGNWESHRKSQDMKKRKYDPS

[2] = biological target: T2, Polyadenylate-binding protein 1 (Homo sapiens, UniProt P11940); assay: MLLE binding blockers, Cy5 peptide tracer – biochemical, fluorescence polarization, Cy5-PAM2 peptide, secondary, miRNA deadenylation inhibitor project, dose response (AID 602260); format: functional; details: read-out: IC50_Mean
[3] = biological target: T2, Polyadenylate-binding protein 1; assay: MLLE domain peptide-binding blockers, IC50 – biochemical, fluorescence polarization, FITC-PAM2 peptide, dose response (AID 602259); format: functional; details: read-out: IC50_Mean
[4] = blockade of melanocortin 4 receptor signaling – cell-based, plate reader, cherry pick, counter-screen for LGR2 antagonist project, dose response (AID 743444); format: functional;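 further: transfected HEK 293 cells stimulated with alpha-MSH peptide; potency of inhibitors of the alpha-MSH evoked signal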
[5] = biological target: T3, Heat shock factor protein 1 (Mus musculus, UniProt P38532); assay: decrease of HSF1-responsive luciferase luminescence – cell-based, NIH3T3, dose retest, confirmation (AID 2382); format: functional;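 further: NIH3T3 fibroblasts with HSF1-driven luciferase reporter stressed by proteasome inhibitor MG132; luminescence from HSF1-driven luciferase expression after 8 hours of MG132 stress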
T3 sequence (P38532 whole entry): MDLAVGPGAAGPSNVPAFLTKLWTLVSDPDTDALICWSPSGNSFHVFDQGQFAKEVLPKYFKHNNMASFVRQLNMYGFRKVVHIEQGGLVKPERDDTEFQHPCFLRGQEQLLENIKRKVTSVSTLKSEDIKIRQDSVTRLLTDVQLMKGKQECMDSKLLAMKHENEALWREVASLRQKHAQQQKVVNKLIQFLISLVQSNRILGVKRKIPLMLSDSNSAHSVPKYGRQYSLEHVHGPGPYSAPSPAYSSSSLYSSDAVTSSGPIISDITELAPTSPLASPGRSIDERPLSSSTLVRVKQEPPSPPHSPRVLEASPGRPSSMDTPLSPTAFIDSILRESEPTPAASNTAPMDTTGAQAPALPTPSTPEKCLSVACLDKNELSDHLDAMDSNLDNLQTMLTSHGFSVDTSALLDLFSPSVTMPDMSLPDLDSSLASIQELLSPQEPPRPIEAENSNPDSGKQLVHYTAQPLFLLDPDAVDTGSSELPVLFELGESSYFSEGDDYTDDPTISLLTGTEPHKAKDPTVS

[6] = blockers of bursicon-stimulated LGR2 cAMP reporter – cell-based, HEK293, CRE-luciferase reporter, cherry pick, set 2, dose response (AID 743343); format: functional;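 further: transfected cells were stimulated with diluted bursicon conditioned medium after compound addition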
[7] = viability of HCT116 lacking mutant beta-catenin – cell-based, human colon tumor, dose response (AID 1045); format: functional;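 further: HCT116 colon tumor cells with beta catenin knocked out; cells exposed to compound for 60 hours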
[8] = viability of PTEN-deleted HCT116 cells – cell-based, HCT116 PTEN knockout, dose response (AID 1047); format: functional;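 further: HCT116 colon tumor cells with PTEN knocked out; cells exposed to compound for 60 hours before readout; potency for loss of cell viability measured by luminescence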
[9] = biological target: T4, Corticotropin-releasing factor receptor 2/Corticotropin-releasing factor-binding protein (Homo sapiens, UniProt P24387+Q13324); assay: Dose Response confirmation of uHTS hits for small molecule antagonists of the CRF-binding protein and CRF-R2 receptor complex.; format: functional; details: read-out: IC50_Mean
T4 sequence (Q13324 whole entry): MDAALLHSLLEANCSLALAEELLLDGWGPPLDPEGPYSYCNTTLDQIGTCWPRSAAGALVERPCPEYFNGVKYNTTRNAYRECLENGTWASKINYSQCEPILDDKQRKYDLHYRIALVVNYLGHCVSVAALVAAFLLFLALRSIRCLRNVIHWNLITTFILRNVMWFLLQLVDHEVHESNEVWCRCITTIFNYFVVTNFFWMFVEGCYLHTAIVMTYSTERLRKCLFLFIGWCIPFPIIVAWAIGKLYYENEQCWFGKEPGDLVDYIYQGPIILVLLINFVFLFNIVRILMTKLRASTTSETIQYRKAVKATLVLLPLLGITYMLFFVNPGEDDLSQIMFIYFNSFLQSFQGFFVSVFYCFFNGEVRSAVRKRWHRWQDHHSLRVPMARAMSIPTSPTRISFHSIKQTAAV
T4 sequence (P24387 whole entry): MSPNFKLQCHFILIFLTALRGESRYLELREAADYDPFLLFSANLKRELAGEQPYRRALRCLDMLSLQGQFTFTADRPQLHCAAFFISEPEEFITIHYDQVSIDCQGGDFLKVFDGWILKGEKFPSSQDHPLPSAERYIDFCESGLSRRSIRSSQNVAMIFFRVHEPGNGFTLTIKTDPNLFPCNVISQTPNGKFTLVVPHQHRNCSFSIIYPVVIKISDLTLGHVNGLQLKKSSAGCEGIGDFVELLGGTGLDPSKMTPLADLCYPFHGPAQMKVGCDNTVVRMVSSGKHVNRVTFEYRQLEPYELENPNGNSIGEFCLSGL

[10] = biological target: Large T antigen (Simian virus 40, UniProt P03070); format: functional, Betapolyomavirus macacae;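 further: Confirmatory-stage PubChem screen for compounds that inhibit SV40 T antigen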
[11] = biological target: T4, Corticotropin-releasing factor receptor 2/Corticotropin-releasing factor-binding protein; assay: activators of CRF receptor 2 with binding protein – uHTS hits, confirmation (AID 602473); format: functional; details: read-out: EC50_Mean
[12] = biological target: FAD-linked sulfhydryl oxidase ALR (Homo sapiens, UniProt P55789); assay: ALR-catalysed DTT oxidation blockers – biochemical, H2O2 detection, luminescence, cherry-pick, dose response (AID 493248)
[13] = biological target: Glyceraldehyde-3-phosphate dehydrogenase (Homo sapiens, UniProt P04406)
[14] = Luminescence Cell-Based Dose Response HTS to Identify Activators of Luciferase Translation or Activity in H4 […] Cells. [Related pubchem assays: 1829 (Project Summary), 1814 (Primary HTS)]; format: functional
[15] = Luminescence Cell-Based Dose Confirmation HTS to Identify Activators of 5'UTR Stem-Loop Driven Alpha-Synuclein mRNA Translation in H4 Neuroglioblastoma Cells. [Related pubchem assays: 1829 (Project Summary), 1814 (Primary HTS)]; format: functional
[16] = system: H4; assay: Luminescence Cell-Based Dose Response HTS to Identify Activators of 5'UTR Stem-Loop Driven Prion Protein mRNA Translation in H4 Neuroglioblastoma Cells. [Related pubchem assays: 1829 (Project Summary), 1814 (Primary HTS)]; format: functional; details: Homo sapiens

T2 sequence (P11940 whole entry, the tested form may be a part): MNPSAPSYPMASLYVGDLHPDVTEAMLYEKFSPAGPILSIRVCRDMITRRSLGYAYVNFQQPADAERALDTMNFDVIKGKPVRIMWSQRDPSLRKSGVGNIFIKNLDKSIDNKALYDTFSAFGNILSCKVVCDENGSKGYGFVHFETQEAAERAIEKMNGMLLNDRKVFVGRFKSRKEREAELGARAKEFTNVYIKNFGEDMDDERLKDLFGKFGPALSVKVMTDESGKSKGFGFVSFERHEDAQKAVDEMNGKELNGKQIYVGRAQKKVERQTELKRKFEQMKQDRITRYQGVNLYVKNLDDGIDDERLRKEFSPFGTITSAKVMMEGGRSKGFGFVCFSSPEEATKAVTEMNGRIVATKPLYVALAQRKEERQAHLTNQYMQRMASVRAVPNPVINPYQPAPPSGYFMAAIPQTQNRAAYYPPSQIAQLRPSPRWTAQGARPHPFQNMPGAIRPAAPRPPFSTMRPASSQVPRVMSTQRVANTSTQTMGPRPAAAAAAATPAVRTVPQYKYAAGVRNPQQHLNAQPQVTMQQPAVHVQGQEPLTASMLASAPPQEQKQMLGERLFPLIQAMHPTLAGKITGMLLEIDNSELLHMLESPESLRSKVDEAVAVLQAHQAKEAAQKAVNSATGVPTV
Large T antigen, sequence (P03070 whole entry): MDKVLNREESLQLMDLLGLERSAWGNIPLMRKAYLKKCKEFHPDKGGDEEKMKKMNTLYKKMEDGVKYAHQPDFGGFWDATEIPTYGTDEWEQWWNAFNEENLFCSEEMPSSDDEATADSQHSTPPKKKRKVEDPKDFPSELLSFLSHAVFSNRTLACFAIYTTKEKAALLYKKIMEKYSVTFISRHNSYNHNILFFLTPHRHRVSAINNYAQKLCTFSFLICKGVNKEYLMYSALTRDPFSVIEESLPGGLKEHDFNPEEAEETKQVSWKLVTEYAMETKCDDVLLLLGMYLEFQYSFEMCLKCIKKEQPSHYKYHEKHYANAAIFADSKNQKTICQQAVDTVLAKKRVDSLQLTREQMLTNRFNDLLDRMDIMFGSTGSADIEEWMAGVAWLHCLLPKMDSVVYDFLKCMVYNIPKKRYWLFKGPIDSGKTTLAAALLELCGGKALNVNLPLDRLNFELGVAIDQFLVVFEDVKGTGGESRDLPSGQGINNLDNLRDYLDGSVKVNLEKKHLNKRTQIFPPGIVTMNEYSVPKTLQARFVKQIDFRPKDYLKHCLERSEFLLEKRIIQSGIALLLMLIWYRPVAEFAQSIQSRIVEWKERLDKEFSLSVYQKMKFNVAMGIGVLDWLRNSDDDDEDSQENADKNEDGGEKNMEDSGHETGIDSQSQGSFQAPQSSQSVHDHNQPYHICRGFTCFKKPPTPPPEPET
FAD-linked sulfhydryl oxidase ALR, sequence (P55789 whole entry): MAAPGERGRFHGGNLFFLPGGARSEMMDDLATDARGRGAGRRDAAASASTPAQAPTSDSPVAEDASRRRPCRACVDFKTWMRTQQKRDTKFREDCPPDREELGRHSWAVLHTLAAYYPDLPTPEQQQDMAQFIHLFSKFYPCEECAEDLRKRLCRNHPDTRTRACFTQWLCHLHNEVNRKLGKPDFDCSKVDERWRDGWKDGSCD
Glyceraldehyde-3-phosphate dehydrogenase, sequence (P04406 whole entry): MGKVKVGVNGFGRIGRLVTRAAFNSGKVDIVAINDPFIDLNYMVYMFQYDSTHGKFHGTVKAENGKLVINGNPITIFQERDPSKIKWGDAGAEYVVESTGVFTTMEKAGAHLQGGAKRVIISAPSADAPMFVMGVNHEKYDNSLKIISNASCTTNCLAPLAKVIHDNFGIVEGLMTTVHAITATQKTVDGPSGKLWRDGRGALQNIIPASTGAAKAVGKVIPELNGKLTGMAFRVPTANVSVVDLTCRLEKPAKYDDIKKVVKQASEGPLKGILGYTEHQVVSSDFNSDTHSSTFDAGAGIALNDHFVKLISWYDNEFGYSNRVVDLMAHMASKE

Structure (SMILES): N#Cc1cc2cc3c(cc2nc1NCCNC(=S)NCCCN1CCOCC1)OCO3
- AC50 [1]: 14.1 µM (active)

Structure (SMILES): FC(F)(F)c1cccc(NC(S)=Nc2cccc(N=C(S)Nc3cccc(C(F)(F)F)c3)n2)c1
- IC50 [2]: > 66 µM (inactive)
- IC50 [3]: > 66 µM (inactive)

Structure (SMILES): CC(C)(C)c1ccc(C(=O)NCCOc2ccccc2F)cc1
- AC50 [4]: 4.25 µM (active)
- EC50 [5]: < 0.16 µM (active)
- AC50 [6]: 5.41 µM (active)

Structure (SMILES): O=C(c1cc(-c2ccc(Cl)cc2Cl)on1)N1CCCC1
- AC50 [4]: 5.47 µM (active)
- AC50 [6]: 5.36 µM (active)

Structure (SMILES): CN(C)CCN(C)Cc1ccccc1Sc1cccc2ccccc12
- AC50 [1]: 11.2 µM (active)
- EC50 [7]: 10.6 µM (active)
- EC50 [8]: 12.8 µM (active)

Structure (SMILES): CN(C)c1ccc(NC(=O)COC(=O)Cn2nnc3ccccc32)cc1
- IC50 [9]: > 47.1 µM (inactive)
- IC50 [10]: 6.63 µM (active)
- EC50 [11]: > 53 µM (inactive)

Structure (SMILES): COc1ccc2c(c1)CCN1C2CCN2C(=O)CCC21 (stereo unspecified)
- IC50 [2]: > 66 µM (inactive)
- IC50 [3]: > 66 µM (inactive)

Structure (SMILES): COc1ccc(N)cc1NC(=O)CN1CCCC1
- AC50 [12]: 7.58 µM (active)
- AC50 [1]: 9.95 µM (active)

Structure (SMILES): O=C(c1cc(-c2ccc(Cl)cc2Cl)n[nH]1)N(CCO)CCO
- IC50 [13]: > 10 µM (inconclusive)

Structure (SMILES): COc1ccc(N=C(S)NC23CN4CN(CN(C4)C2)C3)c(OC)c1
- AC50 [1]: 16.3 µM (active)

Structure (SMILES): C[C@@H]1[C@@H](Sc2ccccc2)CC(=O)O[C@@H]1c1ccc(-c2ccccc2)cc1
- EC50 [14]: > 120 µM (not active)
- EC50 [15]: > 120 µM (not active)
- IC50 [2]: > 66 µM (inactive)
- EC50 [16]: > 120 µM (not active)
- IC50 [3]: > 66 µM (inactive)

Structure (SMILES): COc1cccc(/C=N/c2ccc(N3CCOCC3)cc2)c1O
- IC50 [10]: 4.14 µM (active)

Source: ChEMBL document CHEMBL1201862, “PubChem BioAssay data set” (2004)
